Test results: patent US20010041737A1, “Enhancing the toxicity of warfarin in rodents” (priority 1998, published 2001)
Structures can show the parent of a compound that is named as a salt.

Tested on: warfarin-resistant Norway rats from Chicago, Illinois
Experiment: Example II: feeding test of 50 ppm warfarin bait with or without antibiotic
Format: in vivo
Conditions: conclusion in words from the Example II mortality figures

CN(C)[C@@H]1C(O)=C(C(N)=O)C(=O)[C@@]2(O)C(O)=C3C(=O)c4c(O)cccc4[C@@](C)(O)[C@H]3C[C@@H]12 [tetracycline hydrochloride]
Effect of the antibiotic on the toxicity of warfarin: appears to enhance the toxicity of warfarin
